Measured values as given in patent US7273880B2, “Selective NPY (Y5) antagonists” (H. Lunbeck A/S, priority 1999, dated 2007).
Like-named read-outs stand apart in the source and are kept apart here.

Legend:
[1] = target: T1, human Y5 receptor (h NPY-5) (Homo sapiens, UniProt Q15761); assay: Functional assay: radioimmunoassay of cAMP; format: cell-based; conditions: functional antagonism, forskolin-stimulated cAMP, cells stably transfected with human Y5
T1 construct: expressed in transfected cells; host or cells: mouse fibroblast LM(tk-) cells, e.g. L-hY5-7 (ATCC CRL-11995)
T1 sequence (Q15761 1-445): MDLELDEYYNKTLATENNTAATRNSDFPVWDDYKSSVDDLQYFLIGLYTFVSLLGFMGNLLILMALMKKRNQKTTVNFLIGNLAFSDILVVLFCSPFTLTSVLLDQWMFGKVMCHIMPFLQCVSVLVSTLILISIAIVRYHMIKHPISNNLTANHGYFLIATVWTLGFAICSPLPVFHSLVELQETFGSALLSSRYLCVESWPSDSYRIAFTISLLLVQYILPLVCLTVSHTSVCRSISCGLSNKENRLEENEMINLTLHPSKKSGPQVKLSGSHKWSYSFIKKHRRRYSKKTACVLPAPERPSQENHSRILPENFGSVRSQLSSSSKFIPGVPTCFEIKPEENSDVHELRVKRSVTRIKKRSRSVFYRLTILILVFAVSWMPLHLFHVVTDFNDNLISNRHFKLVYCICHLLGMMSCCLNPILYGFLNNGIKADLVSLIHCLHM
Experimental: LM(tk-) cells stably transfected with the human Y5 receptor were routinely converted from an adherent monolayer to a viable suspension. Adherent cells were harvested with trypsin at the point of confluence, resuspended in a minimal volume of complete DMEM for a cell count, and further diluted to a concentration of 10^6 cells/ml in suspension media (10% bovine calf serum, 10% 10× Medium 199 (Gibco), 9 mM NaHCO3, 25 mM glucose, 2 mM L-glutamine, 100 units/ml penicillin/100 μg/ml streptomycin, and 0.05% methyl cellulose). The cell suspension was maintained in a shaking incubator at 37° C., 5% CO2 for 24 hours. Membranes harvested from cells grown in this manner may be stored as large, uniform batches in liquid nitrogen. Alternatively, cells may be returned to adherent cell culture in complete DMEM by distribution into 96-well microtiter plates coated with poly-D-lysine (0.01 mg/ml) followed by incubation at 37° C., 5% CO2 for 24 hours. Cells prepared in this manner yielded a robust and reliable NPY-dependent response in cAMP radio-immunoassays as further described hereinbelow.
Stably transfected cells were seeded into 96-well microtiter plates and cultured until confluent. To reduce the potential for receptor desensitization, the serum component of the media was reduced to 1.5% for 4 to 16 hours before the assay. Cells were washed in Hank's buffered saline, or HBS (150 mM NaCl, 20 mM HEPES, 1 mM CaCl2, 5 mM KCl, 1 mM MgCl2, and 10 mM glucose) supplemented with 0.1% bovine serum albumin plus 5 mM theophylline and pre-equilibrated in the same solution for 20 min at 37° C. in 5% CO2. Cells were then incubated 5 min with 10 μM forskolin and various concentrations of receptor-selective ligands. The assay was terminated by the removal of HBS and acidification of the cells with 100 mM HCl. Intracellular cAMP was extracted and quantified with a modified version of a magnetic bead-based radioimmunoassay (Advanced Magnetics, Cambridge, Mass.). The final antigen/antibody complex was separated from free ^125I-cAMP by vacuum filtration through a PVDF filter in a microtiter plate (Millipore, Bedford, Mass.). Filters were punched and counted for ^125I in a Packard gamma counter. Binding data were analyzed using nonlinear regression and statistical techniques available in the GraphPAD Prism package (San Diego, Calif.).

[2] = target: T2, human Y5 receptor (hNPY-5) (Homo sapiens, UniProt Q15761); assay: Radioligand binding to membranes, cloned human Y5 receptor
T2 construct: expressed in transfected cells; host or cells: mouse fibroblast LM(tk-) cells, e.g. L-hY5-7 (ATCC CRL-11995)
T2 sequence (Q15761 1-445): T1 sequence (Q15761 1-445)
How it was run: (§1)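 Competition binding on membranes from stably transfected 293 or LM(tk-) cells, with 0.08 nM ¹²⁵I-PYY in pH 7.4 HEPES buffer plus 0.1% BSA, 120 min at 30 °C, filtration and counting. Nonspecific binding defined by 300 nM human NPY, or 100 nM human PP for Y4; nonlinear regression.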

[3] = target: hNPY-1,2,4 (human Y1, Y2, Y4 receptors); assay: Radioligand binding to membranes, cloned human Y1, Y2 and Y4 receptors; conditions: one bound given for all three
How it was run: as §1

satiated rats = conditions: direct injection into the hypothalamus, 4-hour period; cited from earlier work
[4] = binding Ki as repeated in Table 4, read-out: Ki (h NPY-5)
[5] = cloned human NPY Y5 receptor, radioligand competition binding, Tables 1-3, read-out: Ki, nM hNPY-5

Row | Compound | melting point [°C] | Kb [1] [nM] | Ki [2, 4] [nM] | Ki [2, 5] [nM] | Ki [3] [nM] | increase of food intake (satiated rats)
1 | O=S(=O)(NCCCCCNc1nc2c(s1)CCCc1ccc(F)cc1-2)c1ccccc1F [Example 3, 1-Aza-9-fluoro-2-(5-(2-fluorophenyl)sulfonylamino)-pentylamino-4,5-dihydro-3-thia-benzo[e]azulene] |  | 3.16 | 4.5 | 4.5 | > 10000 | 
2 | O=S(=O)(NCCCCCNc1nc2c(s1)CCCc1ccc(F)cc1-2)c1cccc2ccccc12 [Example 4, 1-Aza-9-fluoro-4,5-dihydro-2-(5-(1-naphthyl)sulfonyl-amino)-pentylamino-3-thia-benzo[e]azulene] |  | 2.51 | 19.5 | 19.5 | > 10000 | 
3 | CS(=O)(=O)NC[C@H]1CC[C@H](Nc2nc3c(s2)CCCc2ccc(F)cc2-3)CC1 [Example 11, trans-1-Aza-9-fluoro-4,5-dihydro-2-(4-(methyl-sulfonylamino-methyl)cyclohexyl)amino-3-thia-benzo[e]azulene] |  | 3.16 | 6.4 | 6.4 | > 10000 | 
4 | CS(=O)(=O)N[C@H]1CC[C@H](CNc2nc3c(s2)CCCc2ccc(F)cc2-3)CC1 [Example 43, trans-N2-(4-Methylsulfonylamino)cyclohexylmethyl-9-fluoro-5,6-dihydro-4H-benzo[6,7]cyclohepta[d][1,3]-thiazol-2-amine] |  | 15.8 | 4.4 | 4.4 | > 10000 | 
5 | NPY: peptide neurotransmitter neuropeptide Y, a 36 amino acid member of the pancreatic polypeptide family |  |  |  |  |  | up to 10 fold

The next lines start with results.

Row | melting point [°C] | Kb [1] [nM] | Ki [2, 4] [nM] | Ki [2, 5] [nM] | Ki [3] [nM] | Compound | increase of food intake (satiated rats)
6 | 60 to 65 | 12.6 | 2.1 | 2.1 | > 10000 | CN(C)S(=O)(=O)NC[C@H]1CC[C@H](Nc2nc3c(s2)CCCc2ccc(F)cc2-3)CC1 [Example 1, trans-N2-(4-Dimethylaminosulfonylaminomethyl)-cyclohexyl-9-fluoro-5,6-dihydro-4H-benzo[6,7]-cyclohepta[d][1,3]-thiazol-2-amine] | 
7 |  | 5.01 | 0.3 | 5.8 | > 10000 | O=S(=O)(CC(F)(F)F)NCCCCCNc1nc2c(s1)CCCc1ccc(F)cc1-2 [Example 20, 1-Aza-9-fluoro-2-(5-(2-trifluoroethyl)sulfonylamino)-pentylamino-4,5-dihydro-3-thia-benzo [e]azulene] | 
8 | 180 to 182 | 1.58 | 2.3 | 2.3 | > 10000 | NS(=O)(=O)N[C@H]1CC[C@H](CNc2nc3c(s2)CCCc2ccc(F)cc2-3)CC1 [Example 44, trans-N2-(4-Aminosulfonylamino)cyclohexylmethyl-9-fluoro-5,6-dihydro-4H-benzo[6,7]cyclohepta[d][1,3]-thiazol-2-amine] | 
